From patent US10821091B2, “Retinoid compositions and methods of increasing immune cell-mediated killing of IDH mutant cancer cells” (UNIVERSITY OF PITTSBURGH—OF THE COMMONWEALTH SYSTEM OF …, priority 2017, dated 2020)
Entries after “also recorded” stand apart in the source; their conditions may differ.

What was measured:
[1] = tested on: IDH mutant cells; test: NK cytotoxicity assay (CFSE/7-AAD flow cytometry) on ATRA-treated glioma cells; format: cell-based, human
Method: (§1) All-trans Retinoic acid (ATRA) treatment of astrocytes and primary glioma cells. ATRA was purchased from Sigma Aldrich® and reconstituted in DMSO. ATRA was added at a 1 μM final concentration to cell culture medium for 48 hours. After treatment, the cells either lysed in Trizol™ for qPCR analysis, or were used in NK cytotoxicity assays.
NK-92 cell culture. For some experiments, NK92 cells were used instead of donor NK cells. NK92 cells (ATCC® CRL-2407™) were obtained from ATCC. […] Fresh medium was added every 2-3 days and once a week, the cells were counted and re-suspended at a final concentration of 5×10^5 cells/mL in fresh medium.
NK cytotoxicity assay. […] After 6 h incubation, the cells were stained with 0.25 μg/ml of 7-AAD and analyzed by flow cytometry.
ATRA induced increased cytotoxic killing of IDH mutant cells in an NKG2D-ligand dependent manner. The ability of ATRA to sensitize IDH mutant cells to killing by NK cells was evaluated. For this purpose, IDH mutant and WT cells were treated with 1 μM ATRA for 48 hours and assessed for killing by NK-92 cells (ATCC) at a 10:1 E:T ratio. […] ATRA-treated cells were also evaluated for expression of NKG2D ligands.

[2] = tested on: NKG2D ligands in IDH mutant cells; test: qPCR of NKG2D ligand expression in ATRA-treated glioma cells; format: cell-based, human; details: 1 μM ATRA 48 hours, vs DMSO-treated cells
Method: as §1
Quantitative Real time RT-PCR. 5×10^5 IDH mutant and WT astrocytes, as well as patient glioma cells were lyzed in Trizol and RNA was extracted from the cells using the Chloroform extraction method. cDNA was transcribed from the RNA using iScript cDNA synthesis kit (BioRad). Real-time PCR was performed on an CFX96 Touch™ Real-Time PCR Detection System (Bio-Rad) equipped with a 96-well reaction plate. Briefly, 2 μL cDNA was added to 5 μL of the 2×SYBR Green PCR mastermix (Thermo Scientific), 800 nM of each primer, and water was added to 10 μL. The thermal denaturation protocol was run at the end of the PCR to determine the number of products that were present in the reaction. Reactions were typically run in triplicates. The cycle number at which the reaction crossed an arbitrarily-placed threshold (CT) was determined for each gene and the relative amount of each gene to 18 S rRNA was described using the equation 2^−ΔCT where ΔCT=(CTtargetRNA−CT18S rRNA).
ATRA induced increased cytotoxic killing of IDH mutant cells in an NKG2D-ligand dependent manner. The ability of ATRA to sensitize IDH mutant cells to killing by NK cells was evaluated. For this purpose, IDH mutant and WT cells were treated with 1 μM ATRA for 48 hours and assessed for killing by NK-92 cells (ATCC) at a 10:1 E:T ratio. […] Also, as observed in vivo, increased NK-92 killing in IDH mutant cells was dependent upon NKG2D engagement. […] ATRA-treated cells were also evaluated for expression of NKG2D ligands.

[3] = tested on: ATRA-treated IDH mutant cells; test: Transwell chemotaxis assay of immune cell subsets; format: cell-based, human
Method: ATRA increases chemotaxis towards IDH mutant cells in a CCL2-dependent manner. […] To confirm these findings, chemotaxis assays were performed in vitro. ATRA-treated IDH mutant or WT cells were plated in the bottom well of a transwell. Different immune cell subsets (as indicated) were placed in the top chamber at a 10:1 E:T ratio. After 48 hours, cells from the bottom chamber were harvested and analyzed by flow cytometry. […] To evaluate the mechanisms of changes in chemotaxis induced by ATRA, a chemokine array was performed. Supernatants from ATRA- (or DMSO)-treated WT and IDH mutant cultures were used to assess changes in chemokine expression using a chemokine array kit (R&D systems). Results were interpreted visually as well as quantified using an imaging software (ImageJ). […] To substantiate the role of CCL2 in NK and T cell chemotaxis, transwell assays were repeated as described earlier, in the presence of CCL2-blocking antibody (R&D systems).

[4] = tested on: IDH mutant tumors; test: Comparison of RA isoforms in tumor-bearing mice; format: in vivo
Description: Mice. […] DMSO-treated mice were used as controls.
Therefore, the efficacy of two other RA isoforms were compared with ATRA in IDH mutant gliomas. […] However, treatment of IDH mutant tumors with all three retinoic acid isoforms reduced tumor size (the bottom 3 data lines at Day 40 having endpoints below 100 mm^2). […] The changes in tumor microenvironment induced by ATRA differed from the other RA isoforms as well.

[5] = tested on: IDH mutant (HT-1080, R132C IDH1 mutation) chondrosarcoma cells; test: Viability and apoptosis of chondrosarcoma cells; format: cell-based; details: 48 hours
Method: IDH mutant (HT-1080, R132C IDH1 mutation) chondrosarcoma cells were treated with different doses of ATRA or DMSO for 48 hours. After treatment, cells were evaluated for viability (FIG. 11A) and apoptosis by caspase activity (FIG. 11B). […] Additionally, IDH WT cells and IDH mutant chondrosarcoma cells were treated with different doses of ATRA or DMSO for 48 hours.

[6] = tested on: RBP1 in IDH mutant (HT-1080) cells; test: RBP1 levels by qPCR in chondrosarcoma cells; format: cell-based; details: 1 μM or 10 μM ATRA, 48 hours
Description: IDH mutant tumor cells produce reduced amounts of RBP1 compared to WT IDH tumor cells (FIG. 11D).

[7] = tested on: diffuse IDH mutant glioma; test: ATRA therapy in a human patient, MRI before and after; format: in vivo; details: 40 mg/m2 ATRA, 21 days on, 7 days off, three months
Method: A patient with diffuse IDH mutant glioma was treated with 40 mg/m2 ATRA on a treatment cycle of 21 days on, 7 days off. MRI images of the patient's brain were performed before (FIG. 12A) and after (FIG. 12B) ATRA treatment.

[8] = towards ATRA-treated IDH mutant cells vs DMSO-treated controls, 48 hours
[9] = towards ATRA-treated IDH mutant cells, 48 hours

## CC1=C(/C=C/C(C)=C/C=C/C(C)=C/C(=O)O)C(C)(C)CCC1 [ATRA, all-trans retinoic acid]
[1]; ATRA-treated IDH mutant cells
  killing by NK cells incubated with NKG2D blocking antibody: failed to recognize and kill ATRA-treated IDH mutant cells, reducing killing to baseline levels
[1]; IDH mutant cells, 1 μM ATRA 48 hours, 10:1 E:T ratio, vs DMSO-treated controls
  killing by NK-92 cells: significantly more susceptible to killing by NK-92 cells
[2]
  expression of NKG2D ligand MICA: increased expression
  expression of NKG2D ligand MICB: increased expression
  expression of NKG2D ligand ULBP1: increased expression
  expression of NKG2D ligand ULBP3: increased expression
[3]; ATRA-treated IDH mutant cells
  NK and T cell migration in the presence of CCL2-blocking antibody: reversed the increased NK (FIG. 6M) and T cell (FIG. 6N) migration
  migration of Tregs in the presence of CCL2-blocking antibody: did not impact the migration of Tregs
[3]; [8]
  migration of CD8+ T cells: increased migration
  migration of M1 macrophages: increased migration
  migration of NK cells: increased migration
[3]; [9]
  migration of M2 macrophages: decreased migration
  migration of Monocytes: decreased migration
  migration of Tregs: decreased migration
[4]; ATRA vs 13-cis RA and bexarotene
  efficacy at retarding IDH mutant tumor growth compared among RA isoforms: significantly more effective at retarding IDH mutant tumor growth in vivo; also recorded: the most effective RA isoform in terms of tumor growth
[4]; after ATRA treatment, compared with 13-cis RA and bexarotene
  tumor microenvironment immune cells: lower MDSCs and monocytes, and higher DCs and macrophages
[4]; compared with 13-cis RA and bexarotene
  gene expression levels of ULBP3 ex vivo: higher gene expression levels of ULBP3
[4]; ex vivo co-culture with human NKs, compared among RA isoforms
  killing of IDH mutant cells by NK cells: significantly increased killing of IDH mutant cells by NK cells; also recorded: highest level of NK-mediated killing
[5]; HT-1080, different doses
  apoptosis by caspase activity: induced apoptotic cell death
  cell viability: decreased cell viability
[5]; IDH WT and IDH mutant chondrosarcoma cells, different doses
  7-AAD levels (flow cytometry): increased 7-AAD levels corresponding to increased apoptotic cell death in a dose-dependent manner
[6]
  RBP1 levels: increased RBP1 levels in IDH mutant chondrosarcoma cells in a dose dependent manner
[7]
  glioma tumor on MRI: reduction in the size and severity of the glioma tumor
